Legend:
[1] = test system: CT1 primary xenograft cells; assay: CT1 primary xenograft, murine mAbs in combination with Irinotecan; type: in vivo, SCID beige female mice; settings: Irinotecan 10 mg/kg IP once per day for the first 5 days
Protocol: Single agent in vivo efficacy of murine antibodies 14F7.1, 18G7.1, 5B10.1, 14A8.1, 1B3.5 was evaluated in a primary colon tumor xenograft model system using CT1 primary xenograft cells. CT1 is a primary colorectal (CRC) in vivo xenograft tumor established from a fresh CRC patient tumor sample. The mutational status was determined by Ion Torrent deep sequencing to identify oncogene mutations. Approximately 5-15% of CT1 tumors express GPR49. SCID beige female mice were inoculated with CT1 tumor cells and monitored for tumor growth. Mice were randomized at day 0 into groups of 10 when mean tumor volume reached 175 mm^3. Chemotherapeutic Irinotecan was administered IP at 10 mg/kg once per day for the first 5 days. The antibodies were administered intraperitoneally (i.p.) at 15 mg/kg administered twice weekly for 4 weeks. Tumors were measured at the indicated intervals post-inoculation for total tumor volume.

colon tumor cells = assay: Secondary transplant tumor formation after GPR49 mAb+irinotecan (Example 30); type: in vivo, mice; settings: 140 day follow-up
Excerpt: Isolated tumor cells from control or GPR49 mAb+irinotecan treated tumors from the in vivo study outlined in Example 3 were harvested, pooled, dissociated and re-implanted in a limiting dilution secondary transplant assay to measure cancer stem cell frequency. For each treatment group, 8 mice were implanted with 10, 30, 100 cells. […]

GPR49 = biological target: T1, GPR49 (Homo sapiens, UniProt O75473); assay: Internalization of GPR49 in Lovo colon tumor cells (confocal); type: cell-based; settings: 10 ug/ml, 37° C., 60 min
T1 construct: endogenous in cells; host or cells: Lovo colon tumor cells
T1 sequence (O75473 22-907): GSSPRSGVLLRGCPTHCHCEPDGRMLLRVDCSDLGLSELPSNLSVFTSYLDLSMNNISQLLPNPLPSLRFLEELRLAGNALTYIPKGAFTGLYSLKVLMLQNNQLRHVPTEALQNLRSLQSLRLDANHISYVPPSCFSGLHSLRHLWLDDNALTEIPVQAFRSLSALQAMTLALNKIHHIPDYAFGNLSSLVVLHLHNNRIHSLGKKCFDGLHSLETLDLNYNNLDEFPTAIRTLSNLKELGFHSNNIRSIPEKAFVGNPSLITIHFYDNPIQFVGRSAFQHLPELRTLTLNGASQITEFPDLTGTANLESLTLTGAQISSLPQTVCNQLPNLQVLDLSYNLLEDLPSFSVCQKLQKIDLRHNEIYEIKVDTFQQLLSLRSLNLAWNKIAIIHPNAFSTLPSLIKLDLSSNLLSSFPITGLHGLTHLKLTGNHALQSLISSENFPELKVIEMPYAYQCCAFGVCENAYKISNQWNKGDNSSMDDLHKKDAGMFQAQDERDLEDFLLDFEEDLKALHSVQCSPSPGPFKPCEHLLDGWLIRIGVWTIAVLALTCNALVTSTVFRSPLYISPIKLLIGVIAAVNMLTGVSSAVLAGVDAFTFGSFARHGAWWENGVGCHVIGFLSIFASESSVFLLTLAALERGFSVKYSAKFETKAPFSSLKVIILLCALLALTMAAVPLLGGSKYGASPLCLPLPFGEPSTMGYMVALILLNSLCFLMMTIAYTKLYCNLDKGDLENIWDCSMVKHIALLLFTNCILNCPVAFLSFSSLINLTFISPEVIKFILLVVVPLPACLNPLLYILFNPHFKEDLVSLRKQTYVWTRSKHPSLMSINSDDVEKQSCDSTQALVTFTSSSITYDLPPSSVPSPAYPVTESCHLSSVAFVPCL
Protocol: Methods: Lovo colon tumor cells were seeded at 50,000 cells per well into 8 well chamber slides (Becton Dickinson Collagen Type 1 coated culture slides, BD BioCoat™#354630) 48 hours prior to staining procedures. Cells were routinely maintained below 20 passages. On day of staining procedures, culture media was discarded from each well and replaced with 500 ul cold incubation buffer (MEM Eagle ATCC #30-2003+1% BSA). Cells were washed 2× with this buffer for 3 min each wash. 250 ul of each mAb (76C12, 78F05 and murine 10A9.2) to be tested was then added to the appropriate well at a concentration of 10 ug/ml, diluted in incubation media, and incubated on ice for 1 hour. A human anti-human-IGF-1R antibody was used as a positive control to compare degree of internalization. Antibody 5A7 (anti-Id mAb), IDEC152 (anti-CD23 IgG1 mAb) and no antibody were used as negative controls. After the 45 minutes incubation on ice, the time zero (1=0′) slide washed 3× with 500 ul of cold wash buffer (PBS+1% BSA+2% Goat serum) for 3 min each wash (slides always kept on ice). The t=0 slide was then fixed with 500 ul […] (diluted with PBS from 16% stock; EMS #15710) for 15 minutes at room temperature. The t=0 slide was then washed again 3× with cold wash buffer for 3 minutes each wash, then left on ice. […]

internalization of GPR49 (GPR49) | Compound | tumor inhibition by Irinotecan alone [1] [%] | average size of tumors (colon tumor cells; cells from irinotecan treated tumors) [mm^3] | mice with tumors (colon tumor cells; cells from pre-treated tumors)
– | CCc1c2c(nc3ccc(OC(=O)N4CCC(N5CCCCC5)CC4)cc13)-c1cc3c(c(=O)n1C2)COC(=O)[C@]3(O)CC [Irinotecan] | 45 | 1729 | 5/8
did not bind or internalize | IDEC152: primatized anti-CD23 IgG1 mAb, negative control | – | – | –

From patent US10196442B2, “Methods of inhibiting growth of a colon cancer tumor in a subject by administering monoclonal antibodies to G protein-coupled receptor 49 (GPR49)” (Bionomics Inc., priority 2011, dated 2019)
